Measurements from the METLIN SMRT retention time set (Domingo-Almenara et al. 2019).

Assay: gradient 5% acetonitrile 3 min, to 50% in 2 min, to 85% in 15 min, held 3 min, 100 µL/min
Details: column: Zorbax Extend-C18 2.1 x 50 mm; eluents: water / acetonitrile, 0.1% formic acid
Method in brief: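 Mixtures of ~100 pure standards were chromatographed on a Zorbax Extend-C18 column (2.1 × 50 mm, 1.8 μm) at 100 μL/min using water and acetonitrile, each with 0.1% formic acid. Detection used a quadrupole time-of-flight mass spectrometer in positive and negative ionization mode, and data collection spanned 3 months. Retention time was obtained from adduct peaks picked computationally and each checked manually.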

Compound	RP-LC retention time [s]
CCCOc1ccc(C2C(=O)N(C3CCC(C)CC3)CC(=O)N2Cc2ccco2)cc1OC (configuration not stated)	1070
COCCCn1c(=O)c2ccccc2n(Cc2nc(-c3ccc4c(c3)OCO4)no2)c1=O	954
COCCN1C(=O)CCc2cc(NS(=O)(=O)c3ccc(OC)c(OC)c3)ccc21	569
NC1N=C(c2ccccc2)c2ccccc2NC1=O (configuration not stated)	568
COc1cccc(-n2c(=O)c3sccc3n(Cc3nc(-c4ccccc4OC)no3)c2=O)c1	861
CCn1c(C(=O)NCCCN2CCOCC2)c(N2CCCC2=O)c2cc(F)ccc21	624
O=C1NC2(CCN(C(=O)c3cccc(F)c3)CC2)N=C1c1cccc(F)c1	821
Cc1ccc(CNC(=O)CN2C(=O)C(Oc3ccc(F)cc3)C23CCCCC3)o1 (configuration not stated)	1020
Cc1nnc(-c2cn(CC(=O)NCc3ccccc3Cl)c3ccccc23)o1	821
CC1=C(C(=O)Nc2ccccc2C(=O)NCCN2CCN(C)CC2)SCCO1	599
Cc1c(Cl)cccc1S(=O)(=O)NCC1CCN(C(=O)c2cc3ccccc3o2)CC1	934
CCCCNC(=O)C1CC(=O)N(c2n[nH]c3cccc(F)c23)C1 (configuration not stated)	660
COc1cccc(-n2c(=O)c(C(=O)Nc3cc(F)ccc3F)c(O)c3cccnc32)c1	1270
CN(C)c1ccc(C(=O)N2CCN(C(=O)c3nnn4c3COC(c3ccc(Cl)cc3)C4)CC2)cc1 (configuration not stated)	935
CC1Oc2ccc(S(=O)(=O)N3CCC(C(=O)Nc4ccc(F)cc4)CC3)cc2NC1=O (configuration not stated)	829
CO[C@H]1C(=O)N(C(C)C)[C@H]1C1CCN(S(=O)(=O)c2cccnc2)CC1	700
COc1ccc(NC(=O)C2CCN(S(=O)(=O)c3cc(C(=O)N4CCCC4)cs3)CC2)cc1	760
COc1ccc(-c2nc(NCc3ccco3)ncc2C(=O)O)cc1	781
O=C(c1ccc(Cn2c(=O)c3cccn3c3cccnc32)cc1)N1CCN(c2ccccn2)CC1	645
CCC(C)NC(=O)c1n[nH]c2c1CC(C)CC2 (configuration not stated)	777
CCCNC(=O)c1sc(Nc2cccc(C)n2)nc1C	697
O=C(NCC1CC(=O)N(c2ccc3c(c2)OCO3)C1)Nc1ccccc1C(F)(F)F (configuration not stated)	717
O=C(Cc1ccc(Br)cc1)NCC(=O)N1CCCc2ccccc21	876
COc1ccccc1NC(=O)Cn1c(C(F)(F)F)nc2cc3c(cc21)OCCO3	886
COc1ccc(NC(=O)N2CCC3(C2)C(=O)Nc2ccccc23)cc1OC (configuration not stated)	676

The remaining lines, values ahead:

RP-LC retention time [s]	Compound
552	Cc1c(-c2ccnc(N3CCN(C)CC3)n2)cnc2nc(-c3ccncc3)nn12
818	O=C(NCc1ccc(F)c(Cl)c1)C1CCCN(c2ncnc3c2oc2ccccc23)C1 (configuration not stated)
890	CCc1ccc(NC(=O)C2CCN(C(=O)c3ncn4c3COC(c3ccc(F)cc3)C4)CC2)cc1 (configuration not stated)
903	O=c1n(Cc2cc(F)cc(F)c2)nc2c(S(=O)(=O)N3CCCCC3)cccn12
582	Cn1nc(N2CCC(NC(=O)CCn3cccn3)C2)ccc1=O (configuration not stated)
882	O=c1cc(N2CCOCC2)oc2c1ccc1ccccc12
724	CCOC(=O)c1ccc(NS(=O)(=O)N2CCOCC2)cc1
888	CC(C)c1ccc(NC(=O)C2CCc3nc(N4CCOCC4)ncc3C2)cc1 (configuration not stated)
580	Nc1ncnc2c1ncn2C1CCCO1 (configuration not stated)
675	Cc1nc(-c2ccc(C(=O)N3CCCC3)cc2)no1
921	CC1CCCCN1S(=O)(=O)c1ccc2c(c1)CCC(=O)N2CC(=O)NC1CCCCC1 (configuration not stated)
698	Cc1noc(C2CN(C(=O)NCc3ccc(F)cc3)CC23CCOCC3)n1 (configuration not stated)
